Each block holds one compound with its values, some of them ahead of it.
How the values were obtained:
[1] = Displacement of 125I-[Sar1, Ile8] AngII from rat AT1 receptor expressed in COS1 cells; type: cell-based; details: cos-1
B2 bradykinin receptor = target: T1, B2 bradykinin receptor (Homo sapiens, UniProt P30411); test: Displacement of [3H]BK from cloned human B2 bradykinin receptor expressed in CHO cells after 2 hrs by liquid scintillation counter; type: cell-based
T1 sequence (P30411 whole entry): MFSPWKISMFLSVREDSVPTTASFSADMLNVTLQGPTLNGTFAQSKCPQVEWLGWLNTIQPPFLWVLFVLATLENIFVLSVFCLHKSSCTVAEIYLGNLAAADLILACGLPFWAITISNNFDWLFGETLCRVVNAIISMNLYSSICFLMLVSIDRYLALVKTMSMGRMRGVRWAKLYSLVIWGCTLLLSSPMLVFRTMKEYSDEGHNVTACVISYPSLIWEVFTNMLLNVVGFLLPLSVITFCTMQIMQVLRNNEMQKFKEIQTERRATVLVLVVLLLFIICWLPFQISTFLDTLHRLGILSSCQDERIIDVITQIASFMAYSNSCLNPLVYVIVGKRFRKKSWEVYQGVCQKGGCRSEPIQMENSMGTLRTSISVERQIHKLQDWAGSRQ

[2] = target: T2, Type-2 angiotensin II receptor (Homo sapiens, UniProt P50052); test: Binding affinity to angiotensin II receptor (unknown origin)
T2 sequence (P50052 whole entry): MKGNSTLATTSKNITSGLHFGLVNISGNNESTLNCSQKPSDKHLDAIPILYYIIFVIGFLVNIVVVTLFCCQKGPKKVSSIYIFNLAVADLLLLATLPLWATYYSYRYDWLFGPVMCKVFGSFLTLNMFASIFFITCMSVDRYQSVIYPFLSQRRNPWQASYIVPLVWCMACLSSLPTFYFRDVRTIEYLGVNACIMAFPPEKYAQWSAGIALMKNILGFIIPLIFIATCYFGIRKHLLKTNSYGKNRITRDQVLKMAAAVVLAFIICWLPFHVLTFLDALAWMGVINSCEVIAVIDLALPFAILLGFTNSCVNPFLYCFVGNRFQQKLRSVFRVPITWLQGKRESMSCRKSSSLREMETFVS

[3] = target: Histamine H3 receptor (Homo sapiens) (UniProt Q9Y5N1); test: Partial agonist activity at human histamine H3 receptor expressed in SK-N-MC cells by beta-galactosidase reporter gene assay relative to histamine; type: cell-based
Histamine H3 receptor (Homo sapiens), sequence (Q9Y5N1 whole entry): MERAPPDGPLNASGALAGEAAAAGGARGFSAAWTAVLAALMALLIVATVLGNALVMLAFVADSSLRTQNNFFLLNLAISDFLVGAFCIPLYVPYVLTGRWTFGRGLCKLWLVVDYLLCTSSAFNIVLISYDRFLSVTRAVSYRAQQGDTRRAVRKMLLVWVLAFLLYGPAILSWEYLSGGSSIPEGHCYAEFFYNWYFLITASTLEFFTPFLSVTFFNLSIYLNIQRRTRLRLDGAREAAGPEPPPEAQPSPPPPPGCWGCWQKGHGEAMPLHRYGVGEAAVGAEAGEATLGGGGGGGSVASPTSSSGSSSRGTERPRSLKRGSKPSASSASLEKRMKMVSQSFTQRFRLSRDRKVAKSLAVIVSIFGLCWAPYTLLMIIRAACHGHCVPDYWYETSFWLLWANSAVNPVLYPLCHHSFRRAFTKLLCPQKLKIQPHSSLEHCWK

Melanocortin receptor 4 = Melanocortin receptor 4 (Homo sapiens, UniProt P32245); test: Displacement of 125I-NDP-a-MSH from human Melanocortin receptor 4 after 2 hrs by TopCount microplate scintillation and luminescence counter
Melanocortin receptor 4, sequence (P32245 whole entry): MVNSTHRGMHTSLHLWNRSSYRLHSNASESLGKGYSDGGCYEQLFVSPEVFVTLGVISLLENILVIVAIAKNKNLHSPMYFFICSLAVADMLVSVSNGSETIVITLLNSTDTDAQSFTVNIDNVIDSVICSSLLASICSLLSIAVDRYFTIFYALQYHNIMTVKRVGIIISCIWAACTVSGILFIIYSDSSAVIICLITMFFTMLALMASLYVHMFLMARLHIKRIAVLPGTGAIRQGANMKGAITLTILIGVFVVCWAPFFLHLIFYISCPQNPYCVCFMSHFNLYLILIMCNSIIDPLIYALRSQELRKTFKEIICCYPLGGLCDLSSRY

Vasopressin V2 receptor = Vasopressin V2 receptor (Homo sapiens, UniProt P30518); test: Displacement of [3H]AVP from human Vasopressin V2 receptor expressed in HeLa cells after 2 hrs by liquid scintillation counter; type: cell-based
Vasopressin V2 receptor, sequence (P30518 whole entry): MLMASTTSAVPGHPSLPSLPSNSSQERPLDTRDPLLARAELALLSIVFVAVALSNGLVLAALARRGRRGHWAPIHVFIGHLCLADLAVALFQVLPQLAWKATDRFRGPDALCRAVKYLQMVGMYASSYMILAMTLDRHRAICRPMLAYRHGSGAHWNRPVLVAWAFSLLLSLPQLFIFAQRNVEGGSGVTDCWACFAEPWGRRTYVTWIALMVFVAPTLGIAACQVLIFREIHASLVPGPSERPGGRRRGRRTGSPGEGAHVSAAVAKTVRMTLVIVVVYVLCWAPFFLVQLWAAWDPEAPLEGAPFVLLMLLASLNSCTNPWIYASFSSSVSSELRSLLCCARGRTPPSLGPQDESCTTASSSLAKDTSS

[4] = target: Histamine H3 receptor (Homo sapiens) (UniProt Q9Y5N1); test: Inverse agonist activity at human histamine H3 receptor expressed in SK-N-MC cells by beta-galactosidase reporter gene assay relative to histamine; type: cell-based

Structure (SMILES): CCCc1nc(C(C)(C)O)c(C(N)=O)n1Cc1ccc(-c2cc(Cc3ccc(O)cc3)ccc2-c2nnn[nH]2)cc1
Kd [1]: 48 nM

Structure (SMILES): Cc1cc(OCc2ccccn2)c2cccc(OCc3c(Cl)ccc(N(C)C(=O)CNC(=O)/C=C/c4ccc(/C=C/c5ccncc5)nc4)c3Cl)c2n1
IC50 (B2 bradykinin receptor): 0.36 nM

Structure (SMILES): CCCc1nc(C(C)(C)O)c(C(=O)O)n1Cc1ccc(-c2cc(Cc3ccc(O)cc3)ccc2-c2nnn[nH]2)cc1
Kd [1]: 21 nM

Structure (SMILES): CCCc1nc(C(C)(C)O)c(C(N)=O)n1Cc1ccc(-c2ccccc2-c2nnn[nH]2)cc1
Kd [1]: 0.8 nM

Structure (SMILES): CCCc1nc(C(C)(C)O)c(C(=O)O)n1Cc1ccc(-c2ccccc2-c2nnn[nH]2)cc1 [OLMESARTAN]
Kd [1]: 2.3 nM

Structure (SMILES): c1nc(CCC2CCCNC2)c[nH]1 (stereo not drawn)
Intrinsic activity [3]: 34%

Structure (SMILES): CCCCOC(=O)NS(=O)(=O)c1ccc(CCC)cc1-c1ccc(Cn2c(CC)nc3c(C)cc(C)nc32)cc1
Ki [2]: 1.5 nM

Structure (SMILES): c1nc(CCC2CCNCC2)c[nH]1
Intrinsic activity [3]: 60%

Structure (SMILES): c1nc(CCCC2CCCNC2)c[nH]1 (stereo not drawn)
Intrinsic activity [4]: 29%

Continued, values first:

Ki [2]: 2.1 nM
Structure (SMILES): CCCCOC(=O)NS(=O)(=O)c1ccc(CC(C)C)cc1-c1ccc(Cn2c(CC)nc3c(C)cc(C)nc32)cc1

Ki (Melanocortin receptor 4): 2 nM
Structure (SMILES): CCN(C(C)=O)C(C)c1ccccc1N1CCN(C(=O)[C@H](CC(=O)N2CCN(C(=O)OC(C)(C)C)CC2)Cc2ccc(Cl)cc2)CC1 (stereo partly drawn)

Ki (Melanocortin receptor 4): 6 nM
Structure (SMILES): CCN(C(C)=O)C(C)c1ccccc1N1CCN(C(=O)[C@H](CC(=O)NC2CCC2)Cc2ccc(Cl)cc2)CC1 (stereo partly drawn)

IC50 (Vasopressin V2 receptor): 18 nM
Structure (SMILES): Cc1cc(N)ccc1C(=O)N1CCCCc2cc(Cl)ccc21

Source: ChEMBL document CHEMBL3774335, “Tactical Approaches to Interconverting GPCR Agonists and Antagonists” (J Med Chem, 2016)
